Experiments:
[1] = test system: DOI-induced hypolocomotion in rats; assay: Attenuation of DOI-induced hypolocomotion in rats; format: in vivo, rat; conditions: compound 1-10 mg/kg p.o., DOI 1 mg/kg s.c.
Experimental: In this example, compounds of the invention were tested for inverse agonist activity by determining whether these compounds could attenuate DOI-induced hypolocomotion in rats in a novel environment. DOI is a potent 5-HT2A/2C receptor agonist that crosses the blood-brain barrier. The standard protocol used is described briefly below.
Male Sprague-Dawley rats weighing between 200-350 g were used for all tests. Rats were housed three to four per cage.
(R)-DOI HCl (C11H16INO2.HCl) was obtained from Sigma-Aldrich and was dissolved in 0.9% saline. Compounds of the invention were synthesized at Arena Pharmaceuticals Inc., San Diego, Calif. and were dissolved in 100% PEG400. DOI was injected s.c. in a volume of 1 mL/kg, while compounds of the invention were administered p.o. in a volume of 1 mL/kg.
The “Motor Monitor” (Hamilton-Kinder, Poway, Calif.) was used for all activity measurement. This apparatus recorded rears using infrared photobeams. […]
In determining the effects of compounds of the invention on DOI-induced hypoactivity, animals were first injected with vehicle or the compound of the invention (1-10 mg/kg) in their home cages. […] Ten minutes after DOI administration, animals were placed into the activity apparatus and rearing activity was measured for 10 min.
Results (total rears over 10 min) were analyzed by t-test. […]

JC virus = conditions: human glial cells; cited from earlier work
heatstroke = conditions: during heatstroke; cited from earlier work
diabetic rats = conditions: 19.8% deficit in diabetic rats; cited from earlier work
[2] = test system: diabetic nephropathy patients; conditions: 24 months of treatment; cited from earlier work
[3] = test system: thermal induced pain in rats; conditions: intraperitoneal administration; cited from earlier work
humans = conditions: lumbar disc herniation; cited from earlier work
[4] = test system: inflammatory pain in rats; conditions: intrathecal or intraperitoneal administration; cited from earlier work
healthy adults = assay: Phase 1 trials, waking EEG; format: in vivo, human
normal volunteers = assay: Afternoon nap model of insomnia in normal volunteers; format: in vivo, human

For O=C(c1cccn2ccnc12)N1CCN(CCc2ccc(Cl)cc2Cl)CC1 [Compound 19, (4-(2,4-Dichlorophenethyl)piperazin-1-yl)(imidazo[1,2-a]pyridin-8-yl)methanone], the “attenuation of DOI-induced hypolocomotion (total rears over 10 min)” value [1] was “attenuated DOI-induced hypolocomotion”.
For O=C(c1ccc(F)cc1)C1CCN(CCn2c(=O)[nH]c3ccccc3c2=O)CC1 [ketanserin], the JC virus infection (JC virus) is given as “inhibited” and the “protection against circulatory shocks, intracranial hypertension and cerebral ischemia” value (heatstroke) is given as “protect against circulatory shocks, intracranial hypertension and cerebral ischemia”.
In the case of Cc1nc2sccn2c(=O)c1CCN1CCC(=C(c2ccc(F)cc2)c2ccc(F)cc2)CC1 [ritanserin], the JC virus infection (JC virus) is listed as “inhibited” and the “correction of sciatic motor conduction deficit” value (from here on “correction”) (diabetic rats) is listed as 82.6-99.7%.
In the case of O=CN1CCC(C(=O)NCCN2CCC(=C3c4ccccc4C=Cc4ccccc43)CC2)CC1 [AT-1015], the “correction” value (diabetic rats) is given as 82.6-99.7%.
In the case of COc1cccc(CCc2ccccc2OCC(CN(C)C)OC(=O)CCC(=O)O)c1 (stereo not drawn) [sarpogrelate], the “urinary albumin excretion level” value [2] is given as “significantly reduced”, the “analgesic effect on thermal induced pain” value [3] is given as “significant analgesic effect” and the “treatment of lower back pain, leg pain and numbness associated with sciatica” value (humans) is given as “effective treatment”. The “correction” value (diabetic rats) was 82.6-99.7% and the “analgesic effect on inflammatory pain” value [4] was “significant analgesic effect”.
In the case of O=C(c1cccn2ccnc12)N1CCN(CCc2ccccc2F)CC1 [Compound 18, (4-(2-Fluorophenethyl)piperazin-1-yl)(imidazo[1,2-a]pyridin-8-yl)methanone], the “attenuation of DOI-induced hypolocomotion (total rears over 10 min)” value [1] is reported as “attenuated DOI-induced hypolocomotion”.
For COc1ccc(NC(=O)Nc2ccc(F)cc2F)cc1-c1c(Br)cnn1C [APD125], the “effect on waking EEG” value (healthy adults) was “vigilance-lowering effects”, the “dose of maximal vigilance-lowering effects” value (healthy adults; waking EEG) was 40 to 80 mg and the “time of peak effects after dosing” value (healthy adults; waking EEG) was 2 to 4 h. The “microarousals, number of sleep stage shifts and number of awakenings after sleep onset” value (normal volunteers; human, in vivo) was “decreased”, the sleep onset latency (normal volunteers; human, in vivo) was “not decreased” and the “slow wave sleep and associated parameters” value (normal volunteers; primarily during the early part of sleep) was “increased slow wave sleep and associated parameters in a dose-dependent manner”.
